Experimental data: patent US10562842B2, “Use of polyaminoisoprenyl derivatives in antibiotic or antiseptic treatment” (UNIVERSITE D'AIX-MARSEILLE, priority 2011, dated 2020)

Assays:
[1] = tested on: Enterobacter aerogenes MDR Ea289; assay: MIC of antibiotics ± test compound (MIC ratio), micro-broth dilution; type: cell-based
Procedure: The process consists of treating the MDR bacteria with the compounds of the invention in the presence of antibiotics.
(§1) Susceptibilities to antibiotics and compounds were determined in microplates by broth dilution method, as previously described. Minimal Inhibitory Concentrations (MICs) were determined with an inoculum of 10^6 CFU in 200 μL of MH broth containing two-fold serial dilutions of each drug. […] All MIC determinations were repeated at least three times in independent experiments.
The MICs of chloramphenicol±test compounds (MIC/4) were determined by the micro-broth dilution method (9). All MIC determinations were repeated at least three times in independent experiments. The MIC ratio corresponds to the ratio of the MIC of an antibiotic alone to the MIC of the same antibiotic in the presence of the tested compound (at MIC/4).
The compounds listed in Table 2 were tested for their ability to decrease the chloramphenicol MIC of Ea289, an Enterobacter aerogenes MDR strain (1). Each compound was first tested at MIC/4. […] All MIC determinations were repeated at least three times in independent experiments.
(§2) For reminder, the MIC ratio corresponds to the ratio of the MIC of the assessed antibiotic alone to the MIC of the same antibiotic in the presence of the tested compound (at MIC/4).

[2] = tested on: Salmonella Thyphimurium MDR BN10055; assay: as above; type: cell-based, Salmonella enterica serovar Typhimurium; settings: for MIC ratio (*) on BN10055 Chl: chloramphenicol; for MIC ratio (*) on BN10055 Dox: doxycycline; for MIC ratio (*) on BN10055 Nal: nalidixic acid
Procedure: (§3) The Enterobacter aerogenes Ea289 strain is a Kans derivative of the MDR clinical isolate Ea27, the acrB mutant, EaEP294, was constructed from Ea289. Multidrug-resistant Salmonella enterica serovar Typhimurium DT104 strains (BN10055) was isolated from cattle in France, the isogenic acrB derivative mutant, BN10055ΔacrB, was constructed from BN10055. Strains were maintained at −80° C. in 25% (v/v) glycerol for cryoprotection. Bacteria were routinely grown in Mueller-Hinton (MH) broth at 37° C.
as §1
(§4) […] All MIC determinations were repeated at least three times in independent experiments. The MIC ratio corresponds to the ratio of the MIC of an antibiotic alone to the MIC of the same antibiotic in the presence of the tested compound (at MIC/4).
as §2

[3] = tested on: Enterobacter aerogenes MDR Ea289; assay: as above; type: cell-based; settings: compound at MIC/4, Set 2; for MIC ratio (*) on Ea289 Dox: doxycycline; for MIC ratio (*) on Ea289 Nal: nalidixic acid
CHO cells = assay: Toxicity on CHO cultured cells; type: cell-based
Procedure: The toxicity of each compound was determined on CHO cultured cells. Incubation of CHO cells was performed with serial dilution of compounds. The compounds are either solubilized in DMSO or in PBS. The IC50 corresponds to the concentration of compounds leading to a killing of 50% of the CHO cells after 24 hours of incubation.

Ea289ΔacrB (Ea294) = assay: MIC of antibiotics ± test compound (MIC ratio), micro-broth dilution; type: cell-based, Enterobacter aerogenes; settings: compound at MIC/4, Set 1
Procedure: as §3, §1, §4, §2

BN10055ΔacrB = assay: as above; type: cell-based, Salmonella enterica serovar Typhimurium; settings: compound at MIC/4, Set 1
Procedure: as §3, §1, §4, §2

[4] = tested on: strain IV2571223 - Escherichia coli pig (sensible); assay: MIC of antibiotics in the presence and absence of test compound, veterinary strains; type: cell-based; parameters: MIC for strain IV2571223, Doxycycline in the presence of test compound: unit not given beside the values; settings: compound at the Concentration (μM) (2-50)
Procedure: (§5) For each strain and each antibiotic, the MICs were determined in the presence and in the absence of one test compound.

[5] = tested on: strain IV2571418 - Escherichia coli pig (resistant); assay: as above; type: cell-based; parameters: MIC for strain IV2571418, Doxycycline in the presence of test compound: unit not given beside the values; settings: compound at the Concentration (μM) (4-50)
Procedure: as §5

[6] = tested on: strain IV2570060 - Escherichia coli cattle (sensible); assay: as above; type: cell-based; settings: compound at the Concentration (μM) (4-50)
Procedure: as §5

[7] = tested on: strain IV2570533 - Escherichia coli cattle (resistant); assay: as above; type: cell-based; settings: compound at the Concentration (μM) (0.896-12.6)
Procedure: as §5

[8] = chloramphenicol, compound at MIC/4, Set 2
[9] = erythromycin, compound at MIC/4, Set 1
[10] = doxycycline and nalidixic acid, Set 2

SMILES | MIC ratio (*) on Ea289 Chl [1, 8] | MIC ratio (*) on BN10055 Chl ([2]; compound at MIC/4, Set 2) | MIC ratio (*) on BN10055 Dox ([2]; compound at MIC/4, Set 2) | MIC ratio (*) on BN10055 Nal ([2]; compound at MIC/4, Set 2) | MIC ratio (*) on Ea289 Dox [3] | MIC ratio (*) on Ea289 Nal [3] | MIC for strain IV2571223, Doxycycline in the presence of test compound [4] | MIC for strain IV2571223, Tylosine in the presence of test compound [4] | MIC for strain IV2571418, Doxycycline in the presence of test compound [5] | MIC for strain IV2571418, Tylosine in the presence of test compound [5] | MIC for strain IV2570060, Doxycycline in the presence of test compound [6] | MIC for strain IV2570060, Tylosine in the presence of test compound [6] | MIC for strain IV2570533, Doxycycline in the presence of test compound [7] | MIC for strain IV2570533, Tylosine in the presence of test compound [7] | also measured
CC(C)=CCC/C(C)=C/CC/C(C)=C/CNCCCN1CCOCC1 [Compound 23] | 8 | 8 | 16 | 32 | 32 | 8 |  |  |  |  |  |  |  |  | 
CC(C)=CCCC(C)=CCNCCCNCCCCNCCCN (racemic) [Compound 10, {3-[4-(3-Amino-propylamino)-butylamino]-propyl}-(3,7-dimethyl-octa-2,6-dienyl)-amine] | 8 | 16 | 16 | 64 | 16 | 16 | 0.0625 | 4 | 2 | 16 | 0.125 | 16 | 2 | 8 | IC50 (CHO cells; Cricetulus griseus, killing of 50% of the CHO cells after 24 hours of incubation): 2.33 mM; IC50 on CHO cells, times higher than effective concentration (CHO cells; IC50 on CHO cells versus effective concentration on Ea289): about 300 times; Effective concentration (mM) for a MIC ratio of chloramphenicol ≥ 8 on Ea289 ([1]; chloramphenicol): 0.0078 mM; efficient concentration, times lower than the control PAβN ([1]; chloramphenicol MIC ratio of 8 on Ea289): about 4.9 times; activity, effective concentration compared with PAβN to reach a MIC ratio of 8 ([1]; chloramphenicol on Ea289): strong activity; MIC ratio (*) on Ea289 Chl ([1]; chloramphenicol, compound at MIC/4, Set 1): 16; MIC ratio(*) on Ea289 Ery [1, 9]: 4; MIC ratio (*) on Ea289 Nal ([1]; nalidixic acid, compound at MIC/4, Set 1): 16; MIC ratio(*) on Ea289ΔacrB Chl (Ea289ΔacrB (Ea294); chloramphenicol): 16; MIC ratio(*) on Ea289ΔacrB Ery (Ea289ΔacrB (Ea294); erythromycin): 8; MIC ratio(*) on Ea289ΔacrB Nal (Ea289ΔacrB (Ea294); nalidixic acid): 8; MIC ratio(*) on BN10055ΔacrB Chl (BN10055ΔacrB; chloramphenicol): 2; MIC ratio(*) on BN10055ΔacrB Ery (BN10055ΔacrB; erythromycin): 8; MIC ratio(*) on BN10055ΔacrB Nal (BN10055ΔacrB; nalidixic acid): 2; MIC ratio (*) on BN10055 Chl ([2]; compound at MIC/4, Set 1): 16; MIC ratio(*) on BN10055 Ery [2, 9]: 4; MIC ratio (*) on BN10055 Nal ([2]; compound at MIC/4, Set 1): 64
CCN(CC)CCNCCCNC/C=C(\C)CCC=C(C)C [Compound 21] | 8-16 | 16 | 32 | 64 | 32 | 8 |  |  |  |  |  |  |  |  | 
CC(C)=CCC/C(C)=C/CC/C(C)=C/CNCCCCCN [Compound 18] | 8-16 | 4-8 | 16 | 16 | 64 | 8 |  |  |  |  |  |  |  |  | 
CC(C)=CCC/C(C)=C/CNCCCN(C)CCCN [Compound 13, {3-[(3-Amino-propyl)-methyl-amino]-propyl}-((E)-3,7-dimethyl-octa-2,6-dienyl)-amine] | 16 | 8-16 | 16 | 32 | 16 | 8 |  |  |  |  |  |  |  |  | 
CC(C)=CCC/C(C)=C/CC/C(C)=C/CNCCNCCNCCNCCNCCN [Compound 35, [2-(2-{2-[2-(2-Amino-ethylamino)-ethylamino]-ethylamino}-ethylamino)-ethyl]-(3,7,11-trimethyl-dodeca-2,6,10-trienyl)-amine] |  |  |  |  |  |  | 0.0625 | 32 | 2 | 8 | 0.0625 | 8 | 1 | 4 | MICs for doxycycline and nalidixic acid, Ea289 [1, 10]: > 8; MICs for doxycycline and nalidixic acid, BN100055 [2, 10]: > 8
